From US11999747B2, “Furoquinolinediones as inhibitors of TDP2” (THE UNITED STATES OF AMERICA, AS REPRESENTED BY THE …, priority 2015, dated 2024)

Key:
[1] = molecular target: T1, recombinant human TDP2 (Homo sapiens, UniProt O95551); assay: Recombinant Tdp2 assay (gel-based, 18-mer ssDNA substrate); format: biochemical; conditions: recombinant human TDP2, 25 pM, 15 min, room temperature; read-out: REC TDP2
T1 sequence (O95551 1-362): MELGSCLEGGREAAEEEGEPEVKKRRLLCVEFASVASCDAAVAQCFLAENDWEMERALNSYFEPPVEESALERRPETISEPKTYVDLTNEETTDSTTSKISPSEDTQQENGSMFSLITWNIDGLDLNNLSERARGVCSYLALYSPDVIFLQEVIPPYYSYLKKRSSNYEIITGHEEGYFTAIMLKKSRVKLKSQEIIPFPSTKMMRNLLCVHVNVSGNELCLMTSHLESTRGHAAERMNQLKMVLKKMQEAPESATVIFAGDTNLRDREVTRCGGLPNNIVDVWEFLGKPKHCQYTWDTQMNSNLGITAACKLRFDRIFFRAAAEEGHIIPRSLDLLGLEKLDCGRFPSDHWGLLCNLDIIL
Method: TDP2 reactions were carried out as described previously (Example 52) with the following modifications. The 18-mer single-stranded oligonucleotide DNA substrate (α^32P-cordycepin-3′-labeled) was incubated at 1 nM with 25 pM recombinant human TDP2 in the absence or presence of inhibitor for 15 min at room temperature in a buffer containing 50 mM Tris-HCl, pH 7.5, 80 mM KCl, 5 mM MgCl2, 0.1 mM EDTA, 1 mM DTT, 40 μg/mL BSA, and 0.01% Tween 20. Reactions were terminated and treated similarly to WCE and recombinant TDP1 reactions (see Examples 52 and 53).
(§1) All compounds were prepared by the methods shown in Examples 1 to 50. Routine changes in starting materials and reaction conditions, readily apparent to those of skill in the art, were used to make the particular compounds disclosed in Table 1. […] A standard Tdp2 inhibition assay, such as the assay of Example 53, is used to determine the IC50's for the compounds. LC methods are given in the General Methods section.

[2] = molecular target: T2, human TDP2 (hTDP2) (Homo sapiens, UniProt O95551); assay: Whole cell extract Tdp2 assay (DT40 TDP1-/- cells complemented with human TDP2); format: biochemical; conditions: whole cell extract 4 μg/mL of DT40 cells expressing hTDP2, 15 min, room temperature; read-out: WCE hTDP2
T2 construct: expressed in transfected cells; host or cells: DT40 (chicken) TDP1-/- knockout cells complemented with human TDP2; whole cell extract
T2 sequence (O95551 1-362): T1 sequence (O95551 1-362)
Method: DT40 knockout cells (1×10^7) for Tdp1 (TDP1−/−) complemented with human TDP2 (hTDP2) were collected, washed, and centrifuged. Cell pellets were then lysed and stored similarly to hTDP1 extracts (see above). The 18-mer single-stranded oligonucleotide was incubated at 1 nM with 4 μg/mL of whole cell extracts in the absence or presence of inhibitor for 15 min at room temperature in the WCE buffer containing 50 mM Tris HCl, pH 7.5, 80 mM KCl, 5 mM MgCl2, 2 mM EDTA, 1 mM DTT, 40 μg/mL BSA, and 0.01% Tween-20. Reactions were terminated by the addition of 1 volume of gel loading buffer [99.5% (v/v) formamide, 5 mM EDTA, 0.01% (w/v) xylene cyanol, and 0.01% (w/v) bromophenol blue]. Samples were then treated and run similarly to the hTDP1 whole cell extract (Example 51).
as §1

IC50 [1] [µM] | IC50 [2] [µM] | Compound
37 to 111 | 12 to 37 | Cc1oc2c(c1C(=O)OCCc1ccccc1)C(=O)c1ncccc1C2=O [Compound 40]
12 to 37 | 1 to 12 | COC(=O)c1c(C)oc2c1C(=O)c1ncccc1C2=O [Compound 41]
12 to 37 | 12 to 37 | Cc1oc2c(c1C(=O)OCCc1cn(CCC(=O)O)nn1)C(=O)c1ncccc1C2=O [Compound 42]
12 to 37 | 12 to 37 | C#CCCOC(=O)c1c(C)oc2c1C(=O)c1ncccc1C2=O [Compound 43]
12 to 37 | 12 to 37 | Cc1oc2c(c1C(=O)Oc1ccc(S(C)(=O)=O)cc1)C(=O)c1ncccc1C2=O [Compound 44]
37 to 111 | 1 to 12 | O=C(Oc1ccc(OCCCN2CCOCC2)cc1)c1coc2c1C(=O)c1ncccc1C2=O [Compound 59]
37 to 111 | 1 to 12 | Cc1oc2c(c1C(=O)Oc1ccccc1OCCCN1CCOCC1)C(=O)c1ncccc1C2=O [Compound 60]
37 to 111 | 1 to 12 | CC(=O)N1CCN(c2ccc(OC(=O)c3c(C)oc4c3C(=O)c3ncccc3C4=O)cc2)CC1 [Compound 61]
12 to 37 | 1 to 12 | COC(=O)c1sccc1OC(=O)c1c(C)oc2c1C(=O)c1ncccc1C2=O [Compound 62]
12 to 37 | 1 to 12 | CCOC(=O)c1c(CBr)oc2c1C(=O)c1ncccc1C2=O [Compound 63]
12 to 37 | ≤ 1 | CCOC(=O)c1c(C(C)C)oc2c1C(=O)c1ncccc1C2=O [Compound 64]

Further lines, the compound ahead of its results:

Compound | IC50 [1] [µM] | IC50 [2] [µM]
Cc1oc2c(c1C(=O)Oc1ccccc1)C(=O)c1ncccc1C2=O [Compound 14] | 12 to 37 | 1 to 12
Cc1oc2c(c1C(=O)OCC(O)CO)C(=O)c1ncccc1C2=O (stereo not shown) [Compound 15] | 12 to 37 | 1 to 12
COP(=O)(CCOC(=O)c1c(C)oc2c1C(=O)c1ncccc1C2=O)OC [Compound 22] | 1 to 12 | 12 to 37
Cc1oc2c(c1C(=O)Oc1cccc(Cl)c1)C(=O)c1ncccc1C2=O [Compound 23] | 12 to 37 | 1 to 12
Cc1oc2c(c1C(=O)Oc1ccccc1Cl)C(=O)c1ncccc1C2=O [Compound 24] | 1 to 12 | 12 to 37
Cc1oc2c(c1C(=O)Oc1cccc(C#N)c1)C(=O)c1ncccc1C2=O [Compound 26] | 1 to 12 | 1 to 12
Cc1oc2c(c1C(=O)Oc1ccc(Cl)cc1)C(=O)c1ncccc1C2=O [Compound 27] | 1 to 12 | 1 to 12
Cc1oc2c(c1C(=O)Oc1cccnc1)C(=O)c1ncccc1C2=O [Compound 28] | 1 to 12 | 1 to 12
CCOC(=O)c1c(-c2ccccc2)oc2c1C(=O)c1cccnc1C2=O [Compound 29, Ethyl 4,9-dioxo-2-phenyl-4,9-dihydrofuro[3,2-g]quinoline-3-carboxylate] | 37 to 111 | 12 to 37
CCOC(=O)c1c(-c2ccccc2)oc2c1C(=O)c1ncccc1C2=O [Compound 30, Ethyl 4,9-dioxo-2-phenyl-4,9-dihydrofuro[2,3-g]quinoline-3-carboxylate] | 12 to 37 | 12 to 37
Cc1oc2c(c1C(=O)Oc1ccc(Br)cc1)C(=O)c1ncccc1C2=O [Compound 31] | 12 to 37 | 12 to 37
C#Cc1cccc(OC(=O)c2c(C)oc3c2C(=O)c2ncccc2C3=O)c1 [Compound 32] | 37 to 111 | 12 to 37
Cc1oc2c(c1C(=O)Oc1cccc(-c3cn(CCC(=O)O)nn3)c1)C(=O)c1ncccc1C2=O [Compound 33] | 12 to 37 | 12 to 37
Cc1oc2c(c1C(=O)Oc1cccc(-c3cn(CCCO)nn3)c1)C(=O)c1ncccc1C2=O [Compound 34] | 1 to 12 | 1 to 12
Cc1oc2c(c1C(=O)OCCCCO)C(=O)c1ncccc1C2=O [Compound 35] | 12 to 37 | 1 to 12
Cc1oc2c(c1C(=O)OCCOCCO)C(=O)c1ncccc1C2=O [Compound 36] | 12 to 37 | 12 to 37
Cc1oc2c(c1C(=O)OC[C@@H](O)CO)C(=O)c1ncccc1C2=O [Compound 37] | 1 to 12 | 12 to 37
Cc1oc2c(c1C(=O)OC[C@H]1COC(C)(C)O1)C(=O)c1ncccc1C2=O [Compound 38] | 1 to 12 | 1 to 12
